Results reported in patent publication US12552790B2, “Positive modulators of the muscarinic acetylcholine receptor M4” (Vanderbilt University, priority 2023, dated 2026).

Target: T1, Human M2 (Homo sapiens, UniProt P08172)
T1 construct: expressed in transfected cells; host or cells: CHO-K1
T1 sequence (P08172 1-466): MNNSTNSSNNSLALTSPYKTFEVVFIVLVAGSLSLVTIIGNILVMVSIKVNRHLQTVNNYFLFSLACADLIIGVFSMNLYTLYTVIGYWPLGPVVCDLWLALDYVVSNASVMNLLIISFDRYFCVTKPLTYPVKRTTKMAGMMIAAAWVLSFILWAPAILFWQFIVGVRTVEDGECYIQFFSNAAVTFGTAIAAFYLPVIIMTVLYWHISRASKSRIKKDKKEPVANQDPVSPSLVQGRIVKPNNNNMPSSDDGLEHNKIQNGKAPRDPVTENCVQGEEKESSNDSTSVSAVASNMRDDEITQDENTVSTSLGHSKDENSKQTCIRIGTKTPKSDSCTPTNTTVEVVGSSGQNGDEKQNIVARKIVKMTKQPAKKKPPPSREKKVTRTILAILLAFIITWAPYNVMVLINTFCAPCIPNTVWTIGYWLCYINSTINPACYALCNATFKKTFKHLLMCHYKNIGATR
Test: M2 cell-based functional assay, calcium mobilization (selectivity)
Conditions: for Emax at 30 µM: % ACh maximum at 30 μM; for EC50: M2 cell-based functional assay, calcium flux
How it was run: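 CHO-K1 cells stably expressing receptor, Fluo-4-AM loaded (final 1.15 μM), compound added (140 s) then ACh at EC20 and EC80; Ca flux read at 480/530 nm. Normalized to max ACh response; agonist, PAM (EC20 increase) and antagonist (EC80 decrease) activity fitted by four-parameter logistic for EC50 and Emax.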

SMILES	Emax at 30 µM [%]	EC50 [nM]
[2H]C1([2H])Oc2ccc(OC3CCN(c4nc5nn(C)c(=O)n5cc4C)CC3)cc2OC1([2H])[2H] [Compound A6, 7-(4-((2,3-dihydrobenzo[b][1,4]dioxin-6-yl-2,2,3,3-d4)oxy)piperidin-1-yl)-2,6-dimethyl-[1,2,4]triazolo[4,3-a]pyrimidin-3(2H)-one]	68	499
[2H]C1([2H])Oc2ccc(OC3CCN(c4nc5nn(C)c(=O)n5c(C)c4C)CC3)cc2OC1([2H])[2H] [Compound A10, 7-(4-((2,3-dihydrobenzo[b][1,4]dioxin-6-yl-2,2,3,3-d4)oxy)piperidin-1-yl)-2,5,6-trimethyl-[1,2,4]triazolo[4,3-a]pyrimidin-3(2H)-one]	54	1520
[2H]C1([2H])Oc2ccc(OC3CCN(c4nc5c(cc4C)C(=O)NC5)CC3)cc2OC1([2H])[2H] [Compound 3, 2-(4-((2,3-dihydrobenzo[b][1,4]dioxin-6-yl-2,2,3,3-d4)oxy)piperidin-1-yl)-3-methyl-6,7-dihydro-5H-pyrrolo[3,4-b]pyridin-5-one]	61	658
